In US20030083374A1, “NAALADase inhibitors useful as pharmaceutical compounds and compositions” (priority 1998, published 2003):

Tests used:
[1] = test system: stroke-induced extracellular glutamate increases; conditions: rats; cited from earlier work
[2] = test system: hyperalgesia following sciatic nerve constriction; assay: chronic constrictive injury (CCI) model of pain; format: in vivo, rats
Description: (§1) One source of neuronal glutamate is thought to derive from the abundant neuropeptide NAAG which is hydrolyzed by NAALADase to liberate free glutamate. The inventors hypothesized that inhibition of NAALADase could limit pain by preventing this source of glutamate. To test this hypothesis, the inventors examined the possible antinocipetive effects of several NAALADase inhibitors in the formalin-, acetic acid- and chronic constrictive injury (CCI; “Bennett model”) models of pain. […] On day 7, 5% formalin was injected into the dorsum of the rat's hindpaw.
Sciatic nerve ligation, consisting of 4 ligatures being tied loosely around the sciatic nerve at 1 mm intervals proximal to the nerve trifurcation, was performed on rats. […] Animals were habituated to the Hargreaves apparatus and the infrared heat source directed onto the […] surface of the hindpaw and the time taken for the animal to withdraw its paw noted. The difference score (between the latency of the response for the paw on the operated side versus the control side) was determined. […] Normal (unoperated) rats had approximately equal latencies for both paws. This effect was significant starting at 11 days of drug treatment and persisted through to the end of the study (for 21 days of daily dosing).

[3] = test system: Dorsal root ganglia-Schwann cell co-cultures; assay: in vitro myelination in dorsal root ganglia-Schwann cell co-cultures; format: cell-based
Description: The inventors hypothesized that NAALADase may play a role in signaling myelin formation and inhibition of NAALADase may facilitate myelination. To test this hypothesis, the inventors examined the effects of several NAALADase inhibitors in a well established in vitro model system of myelination. Dorsal root ganglia-Schwann cell co-cultures were established as previously described (Einheber et al., J. Cell. Biol., Vol. 123, p. 1223). Following 7 days in co-culture, myelination was initiated following the addition of serum and ascorbic acid with various doses of NAALADase inhibitors (1 nM to 10 μM) or progesterone (20 nM; positive control). The extent of myelination was examined between days 14-21 using immunocytochemical staining for myelin basic protein (MBP), a known myelin marker.

LNCaP tumors [4] = assay: in vivo cancer assay, LNCaP model, subcutaneous drug delivery; set-up: species or system Ncr nude male mice
Method: Ncr nude male mice, age 5 to 6 weeks, were injected in the right flank with 5×10^6 LNCaP cells in Matrigel™ (0.1 ml total injection volume). […] Controls received 50 mM HEPES s.c. daily. Once tumors were palpable they were measured twice a week.
(§2) Response to treatment was monitored in two ways. First, mean tumor volume for each group was presented as tumor:control ratio (% T/C) and these values were compared at one point in time. Second, tumor volume versus time was monitored.

[5] = test system: cryolesion of the sciatic nerve; conditions: sciatic nerves in mice; cited from earlier work
[6] = test system: cocaine-induced sensitization; assay: in vivo behavioral sensitization to cocaine; set-up: species or system Male Sprague-Dawley rats
Method: NAALADase hydrolyzes the abundant neuropeptide NAAG to liberate glutamate (GLU). The inventors hypothesized that inhibition of NAALADase could attenuate sensitization by preventing this source of GLU. […] Male Sprague-Dawley rats received home cage injections of cocaine (20 mg/kg/day×5 days; i.p.) or sale (1.0 ml/kg). […] Cocaine (20 mg/kg)-induced locomotor activity was assessed 3 days later. […]

[7] = test system: acetic acid (0.6%) induced writhing; assay: acetic acid model of pain (writhing); format: in vivo, mice; conditions: pretreated
Description: as §1

MPTP lesioned mice = conditions: cited from earlier work
LNCaP cells = conditions: as the concentration increased; cited from earlier work
LNCaP tumors [8] = assay: in vivo cancer assay, LNCaP model, intratumoral drug delivery; set-up: species or system Ncr nude male mice
Method: Ncr nude male mice, age 5 to 6 weeks, were injected in the right flank with 10^7 LNCaP cells in Matrigel™ (0.1 ml total injection volume). When the tumors reached a predetermined size (50 to 60 mm^3) mice.were randomly placed into treatment groups of 6 to 8 mice each. […] Controls received 50 μl of 50 mM HEPES intratumorally daily. Tumors were measured twice a week.
as §2

[9] = test system: angiogenesis in Matrigel plugs; assay: in vivo assay of daily dosages on angiogenesis (Matrigel plug, bFGF); set-up: species or system C57B1 female mice; conditions: 3 mg/kg and 30 mg/kg daily s.c., seven days
Method: The injected Matrigel™ rapidly formed a gel. On the same a day as the Matrigel™ injection, daily subcutaneous injections of Compound 3 around the Matrigel™ plug were initiated. Seven days post Matrigel™ injection, Matrigel™ plugs were excised and histology was performed.
The concentrations of the daily dosages as well as the coinciding initial Matrigel™ plug compositions are provided below in TABLE VI.

[10] = test system: formalin-induced flinching behavior; assay: formalin model of pain; format: in vivo, rats; conditions: 50 mg/kg i.p. daily for 7 days
Description: as §1

[11] = test system: nicotine self-administration in rats; conditions: rat, in vivo; cited from earlier work
Dunning G tumors = assay: in vivo cancer assay, Dunning G model, subcutaneous drug delivery; set-up: species or system Male Copenhagen syngenic rats
Method: Male Copenhagen syngenic rats, age 8 to 10 weeks, were injected in both flanks with 10^7 Dunning G cells. […] Controls received 50 mM HEPES s.c. daily. Tumors were measured twice a week.
as §2

[12] = test system: dynorphin-induced spinal cord injury; conditions: co-administered with dynorphin A; by 24-hour post-injection; cited from earlier work
[13] = test system: spinal cord organotypic cultures; conditions: cited from earlier work
[14] = test system: angiogenesis in the Matrigel/bFGF gels; assay: in vivo assay of a continuous dosage on angiogenesis (minipump, Matrigel/bFGF); set-up: species or system C57B1 female mice
Method: Minipumps filled with vehicle (50 mM Hepes) were also implanted at this time. Twenty-four hours later, mice were each injected subcutaneously with 0.5 mL Matrigel™ and the 150 ng/mL of the angiogenic factor, basic FGF (bFGF). Thirteen days post Matrigel™/bFGF injection, the gels were recovered, fixed in formalin and sections were stained with Trichrome-Masson stain.

alcohol-preferring rats = conditions: rat, in vivo; cited from earlier work
[15] = 50 mg/kg i.p. daily starting 10 days after surgery, day 18

O=C(O)CCC(CP(=O)(O)O)C(=O)O (centres unmarked) [Compound 3, 2-(phosphonomethyl)-pentanedioic acid]
concurrent glutamate changes in the parietal cortex [1]: completely prevented
stroke-induced extracellular glutamate increases in the striatum [1]: significantly attenuated
difference scores (thermal pain response) [2, 15]: −0.2±1.9
pain attenuation vs. operated vehicle group [2, 15]: 98%
difference scores between the two paws vs. vehicle-treated controls ([2]; 50 mg/kg i.p. daily starting 10 days post surgery, significant starting at 11 days, through 21 days of dosing): dramatically normalized
immunostaining of MBP ([3]; 1 nM, two week treatment): significant increase
extent of myelination vs. maximal doses of ascorbic acid and progesterone ([3]; high dose, 1 μM): greater extent of myelination
tumor growth, % of controls (LNCaP tumors [4]; 10 mg/kg s.c. daily, day 86): 24%
effect on tumor growth (LNCaP tumors [4]; 1, 3 and 30 mg/kg s.c. daily): no effect on tumor growth
myelin thickness [5]: increase
myelinated axon number [5]: increase
enhancement of cocaine (20 mg/kg)-induced locomotor activity (sensitization) ([6]; 10 and 50 mg/kg, 15 minutes prior to cocaine injections x 5 days, assessed 3 days later): significantly reduced
basal locomotor activity or the response to saline ([6]; Compound 3 on its own): did not alter
acetic acid (0.6%) induced writhing vs. vehicle control [7]: significantly attenuated
TH-stained dopaminergic neurons (MPTP lesioned mice): significant recovery
LNCaP cell proliferation (LNCaP cells): decreased significantly
Tumor volume (LNCaP tumors [8]; after 42 days of treatment, intratumoral 0.025 μg/day): 465.7±176 mm^3
Optimal % T/C (LNCaP tumors [8]; intratumoral 0.025 μg/day): 42%
Regressions (LNCaP tumors [8]; intratumoral 0.025 μg/day): 1/7
Optimal % T/C (LNCaP tumors [8]; intratumoral 0.25 μg/day): 51%
Regressions (LNCaP tumors [8]; intratumoral 0.25 μg/day): 1/7
Optimal % T/C (LNCaP tumors [8]; intratumoral 2.5 μg/day): 45%
Regressions (LNCaP tumors [8]; intratumoral 2.5 μg/day): 0/7
Optimal % T/C (LNCaP tumors [8]; intratumoral 25.0 μg/day): 76%
Regressions (LNCaP tumors [8]; intratumoral 25.0 μg/day): 0/7
tumor growth (LNCaP tumors [8]; intratumoral 0.025, 0.25 and 2.5 μg/day): slowed tumor growth substantially
blood vessels or angiogenesis in the Matrigel plugs [9]: decrease in blood vessels or angiogenesis
effect compared with acute pretreatment with morphine (5 mg/kg) [10]: more robust
flinching behavior, early phase ([10]; 5% formalin on day 7): 2.5±3
flinching behavior, late phase ([10]; 5% formalin on day 7): 0.5±0.58
cumulative food intakes [11]: reduced
nicotine self-administration [11]: reduced
tumor size, % of controls (Dunning G tumors; 10 mg/kg s.c. daily): 38%
tumor size, % of controls (Dunning G tumors; 30 mg/kg s.c. daily): 22%
effect on tumor growth (Dunning G tumors; 1 and 3 mg/kg s.c. daily): no effect on tumor growth
motor scores [12]: significant improvement
protection against THA-induced toxicity [13]: dose-dependent protection
angiogenic response ([14]; 1 μg/day by minipump): strong angiogenic response
angiogenesis in the Matrigel/bFGF gels ([14]; 10 μg/day and 100 μg/day by minipump): significantly decreased angiogenesis
body weights or 24 hour water intakes (alcohol-preferring rats): without affecting
ethanol consumption (alcohol-preferring rats): significantly reduced
